Results from US20240376555A1, “TNRA MODIFICATION-SENSITIVE CODON TRANSLATION ASSAY COMPRISING LUMINESCENCE-BASED REPORTER SYSTEM” (priority 2021, published 2024).
“Also recorded” adds a separate entry of the source.

Key:
U34 enzymes [1] = experiment: Dual luciferase (NanoLuc/Firefly) tRNA modification-sensitive codon translation assay in A549 cells; format: cell-based; conditions: A549 human lung cells; time and concentration series; six U34 codon (xAA) repeats upstream of NanoLuc, xAG upstream of FireflyLuc; FIG. 1g-h
Experimental: (§1) In the preferred embodiment, the luminescence-based reporter system is the Nano-Glo® Dual-Luciferase® Reporter (NanoDLR™) Assay System commercially available from Promega. The medium may be removed and 40 microliters of complete cell culture medium may be added. The plate may be equilibrated at room temperature for 15 min. 40 microliters of ONE-Glo™ EX Reagent may be added for each well. The plates may be mixed and shaked and protected from light for 10 minutes. Then the luminescence may be read. 40 microliters of NanoDLR™ Stop and GloR Reagent may be freshly prepared and added to each well. The plates may be mixed and shaked and protected from light for 10 minutes. The luminescence may be read by any luminescence reader, preferably. The luminescence may be analyzed by calculating the Nanoluc/Firefly ratio.
(§2) Cells (MDA-MB231, M395 or A549) were stably transduced by the lentiviral system (pLV-Puro-hPGK) and 1:3 Mirus transfecting agent [Close et al, Mol Cell 2006].
(§3) Cells were culture in a suitable culture system in the presence of the candidate tRNA modification modulator.
(§4) Signals were detected by any luminescence reader, for example the TECAN Infinite M2000 Pro. Read time can be between 1 and 3 seconds with automatic attenuation.
(§5) No effect was seen using a construct lacking the codon repetitions (FIG. 1e). […]

U34 enzymes [2] = experiment: Dual luciferase (NanoLuc/Firefly) tRNA modification-sensitive codon translation assay in M395 cells; format: cell-based; conditions: M395 human primary melanoma cells; 250 nM for 24 hours; six U34 codon (xAA) repeats upstream of NanoLuc, xAG upstream of FireflyLuc; FIG. 1f
Experimental: as §1, §2, §3, §4, §5

Compound | luciferase specific signal (U34 enzymes [1]) | luciferase specific ratio (NanoLuc/Firefly) (U34 enzymes [2])
Cn1c(=O)n(-c2ccc(C(C)(C)C#N)cc2)c2c3cc(-c4cnc5ccccc5c4)ccc3ncc21 [NVP-BEZ235] | decreased luciferase specific signal in a time and concentration-dependent manner; also recorded: decreased luciferase specific signal in a time and concentration dependent manner | 
CC(C)n1nc(-c2cc3cc(O)ccc3[nH]2)c2c(N)ncnc21 [PP242] | decreased luciferase specific signal in a time and concentration-dependent manner; also recorded: decreased luciferase specific signal in a time and concentration dependent manner | 
insulin |  | increased luciferase specific ratio
